In publication PMC8203924, “Development of a Potent Antimicrobial Peptide With Photodynamic Activity” (Frontiers in Microbiology, 2021):
Converted amounts (≈) assume the structure as drawn. Where two headings read alike, the source gives them in different places. Peptide text beside a SMILES is read from it. * marks the point of attachment. X1 = O=C(c1ccc2c3nc4nc(nc5[nH]c(nc6nc(nc([nH]3)c2c1)-c1ccccc1-6)c1ccccc51)-c1ccccc1-4)*

Columns and labels:
E. coli (ATCC 8739) [1] = format: cell-based, Escherichia coli; conditions: ATCC 8739, 20 h
Method: (§1) E. coli (ATCC 8739), S. aureus (ATCC 6538), or MRSA (ATCC 33591) were grown in LB culture medium at 37°C under aerobic conditions overnight (8–12 h) before use.
(§2) Bactericidal kinetics assay was also determined.

MRSA (ATCC 33591) [2] = format: cell-based, methicillin-resistant S. aureus; conditions: ATCC 33591, 20 h
Method: as §1, §2

S. aureus (ATCC 6538) [3] = format: cell-based, Staphylococcus aureus; conditions: ATCC 6538, 20 h
Method: as §1, §2

S. aureus [4] = conditions: 1-MIC, 12 h, OD600 hourly, 37°C
Method: (§6) Bactericidal kinetics assay was also determined. Different final concentrations (0, 1/8-, 1/4-, 1/2-, 1-MIC) of the peptides were added to the bioluminescent S. aureus suspension (10^3 CFU/ml). The bacteria were incubated at 37°C and 150 rpm. An aliquot of 100 μl of the suspension was taken out to measure the absorption at 600 nm on microplate reader once an hour for up to 12 h.

S. aureus (ATCC 6538) [5] = conditions: 2 μM
Method: as §1
(§3) Photo-assisted antimicrobial activity assays of the compound peptides against ATCC standard strains were carried out by colony counting method. The agar plates with only bacterial suspension were used as negative control. The peptide and bacterial suspension were incubated together in 96-well microplates first. Under the same conditions, for comparison, the other groups were set without light. After incubation for 40 min at room temperature, aliquots of 100 μl were taken out of the solutions and placed on agar plates at serial dilutions, then incubated at 37°C for 18–24 h. Numbers of colonies were counted, and the antimicrobial rate (R) was calculated: R = (B-A)/B × 100%. Here, A is the bacterial colony number on the agar plates containing various concentrations of the peptides, and B is the colony number for negative control.

E. coli (ATCC 8739) [6] = conditions: 2 μM
Method: as §1, §3

[7] = mouse, in vivo, iv
Method: The mice were sacrificed at 2, 4, 8, 12, 24, 36, 48, and 72 h post-injection, and their primary organs (liver, kidneys, heart, spleen, lung, stomach, intestines) or muscles were collected postmortem. Meanwhile, their blood was collected through enucleation of eyeballs. These samples were then washed with saline and imaged on the three-dimension FMT 2500TM LX (PerkinElmer, Waltham, MA, United States) using the same acquisition settings as the in vivo imaging to quantitate the peptide average concentrations in the samples.

bioluminescent S. aureus [8] = format: cell-based, Staphylococcus aureus; conditions: for IC50: bioluminescent S. aureus, 680 nm LED 6 min, 12 J/cm^2, 33.33 mW/cm^2, after 10 min incubation, triplicate, mean ± SD, read-out: IC50 against S. aureus upon illumination
Method: (§4) Bioluminescent bacteria were grown in Luria-Bertani (LB) culture medium at 37°C under aerobic conditions overnight 8–12 diluted 100 times to 10^6 colony-forming units (CFU)/ml in phosphate buffered saline (PBS) before incubating with the peptides. The peptide or new compounds were first dissolved in PBST (PBS with 0.05% Tween 20) to prepare 1-mM stock solutions, and the solutions were then further diluted up to 100 μM with PBST. The bacterial suspensions were then incubated in 96-well plates with the compound peptides. The luminescence was monitored for 1 h to measure the bacterial viability. The percentage of survived bacteria was determined from the luminescence intensities of the treated group divided by the luminescence signal of the controls.
(§5) For photo-assisted antimicrobial activity measurements against bioluminescent bacteria, we used a procedure similar to as above, but with illumination using LM-LED light (680 nm) for 6 min (light dose of 12 J/cm^2, 33.33 mW/cm^2) after 10 min incubation of the bacterial suspensions and the compound peptides.

E. coli = conditions: 1-MIC, 12 h, OD600 hourly, 37°C
Method: as §6

[9] = mouse, in vivo, iv; remark: listed apart in the source
Method: The blood of mice was diluted 10 times with DMF, immediately after collection, and then centrifuged to get supernatant for further determination. The supernatant was measured by fluorescence spectrophotometer F-4600 (HITACHI, Tokyo, Japan). The fluorescence intensity was recorded. The excitation and emission wavelengths were set at 610 and 680 nm. […] The plasma half-life (t1/2) can be calculated by the following formula:
Here, k represents the slope of fluorescence intensity-log (concentration) regression equation.

MRSA (ATCC 33591) [10] = test: Photo-assisted antimicrobial activity by colony counting method; format: cell-based, methicillin-resistant S. aureus; conditions: 2 μM, 6 min illumination, 12 J/cm^2, 33.33 mW/cm^2, colony counting, start 10^6 CFU/ml
Method: as §1, §3

in vitro = conditions: human, human embryonic lung fibroblast (HELF) cells
Method: The culture medium was used as control. The cells were washed with PBS, then were divided into two groups, and the light group was exposed to 12 J/cm^2 of 680 nm light illumination. After another 12-h incubation, the culture medium was refreshed and 3-(4,5-dimethylthiazol-2-yl)-2,5-diphenyltetrazolium bromide (MTT) was added. After 4-h incubation at 37°C, the absorbance at 490 nm was measured on a multi-mode microplate reader (BioTek Synergy 4). The inhibition rate of cell growth was calculated by the following equation:
Cell viability%=Mean absorbance value of treatment group/Mean absorbance value of control×100%

S. aureus [11] = test system: S. aureus
From the text: Kunming mice (4-week-old, 25 ± 2 g, purchased from Shanghai SLAC Laboratory Animal Co. Ltd., Shanghai, China) were maintained and handled in accordance with the recommendations of the Institutional Animal Care And Use Committee (IACUC). […] Each group had six mice. All groups of mice were allowed free access to water and food throughout the experimental process. In each group, excisional wounds (10 mm × 10 mm) was made on the dorsal surface of the mouse by disinfected scissors to a depth of 2.0 mm. The bottom of the wound was panniculus carnosus with no visible bleeding. An aliquot (50 μl) of mid-log phase S. aureus (10^8 CFU/ml) was then inoculated into each wound of mice. […] The area of the wounds and body weight of mice were measured each day.

bioluminescent S. aureus [12] = format: cell-based, Staphylococcus aureus; conditions: without light; for higher efficacy than compound 1 or 2: on both bacterial strains (bioluminescent S. aureus and E. coli); for IC50: bioluminescent S. aureus, 10^6 CFU/ml in PBS, peptides in PBST, luminescence monitored 1 h, triplicate, mean ± SD, read-out: IC50 against S. aureus
From the text: The side chain-protected peptides G3(RW)3, G3(RW)3K5, and G3K5(RW)3 on Wang resin were obtained commercially (GL Biochem Ltd., Shanghai). Beta-carboxy phthalocyanine zinc was developed by us by a method previously reported ([Chen et al., 2006]). Beta-carboxy phthalocyanine (β-PcCOOH) was purified on a silica column with N,N-dimethylformamide (DMF):acetone (3:1) as the second band. All the chemical reagents were analytical grade and used without further purification. Distilled water was used throughout the experiments. E. coli (ATCC 8739), S. aureus (ATCC 6538), and MRSA (ATCC 33591) were acquired from ATCC. Bioluminescent strains of E. coli DH5α were constructed by transformation of plasmid pAKlux2.1, which contained a complete bacterial luciferase operon as described ([Ullah et al., 2018]; [Chen et al., 2019]), and S. aureus Xen29 (NCTC8532) containing a stable copy of the modified Photorhabdus luminescens luxABCDE operon was purchased from Shanghai Biofeng Company.
as §4

bioluminescent E. coli [13] = format: cell-based, Escherichia coli; conditions: 10^6 CFU/ml in PBS, peptides in PBST, luminescence monitored 1 h, without light, triplicate, mean ± SD, read-out: IC50 against E. coli
From the text: The side chain-protected peptides G3(RW)3, G3(RW)3K5, and G3K5(RW)3 on Wang resin were obtained commercially (GL Biochem Ltd., Shanghai). Beta-carboxy phthalocyanine zinc was developed by us by a method previously reported ([Chen et al., 2006]). Beta-carboxy phthalocyanine (β-PcCOOH) was purified on a silica column with N,N-dimethylformamide (DMF):acetone (3:1) as the second band. All the chemical reagents were analytical grade and used without further purification. Distilled water was used throughout the experiments. E. coli (ATCC 8739), S. aureus (ATCC 6538), and MRSA (ATCC 33591) were acquired from ATCC. […]
Bioluminescent bacteria were grown in Luria-Bertani (LB) culture medium at 37°C under aerobic conditions overnight 8–12 diluted 100 times to 10^6 colony-forming units (CFU)/ml in phosphate buffered saline (PBS) before incubating with the peptides. […] The luminescence was monitored for 1 h to measure the bacterial viability. The percentage of survived bacteria was determined from the luminescence intensities of the treated group divided by the luminescence signal of the controls.

bioluminescent E. coli [14] = test: Photo-assisted antimicrobial activity against bioluminescent bacteria; format: cell-based, Escherichia coli; conditions: 680 nm LED 6 min, 12 J/cm^2, 33.33 mW/cm^2, after 10 min incubation, triplicate, mean ± SD, read-out: IC50 against E. coli upon illumination
Method: as §4, §5

[15] = 36-s exposure or 0.60 J/cm^2, 33.33 mW/cm^2
[16] = 6 min illumination, 12 J/cm^2, 33.33 mW/cm^2, colony counting
[17] = 6 min illumination, 12 J/cm^2, 33.33 mW/cm^2, colony counting, start 10^6 CFU/ml

| Compound | MIC against E. coli (E. coli (ATCC 8739) [1]) [µM] | MIC against MRSA (MRSA (ATCC 33591) [2]) [µM] | MIC against S. aureus (S. aureus (ATCC 6538) [3]) [µM] | higher efficacy than compound 1 or 2 (bioluminescent S. aureus [12]) | IC50 (bioluminescent E. coli [13]) [µM] | IC50 (bioluminescent S. aureus [8]) [µM] | IC50 (bioluminescent E. coli [14]) [µM] | IC50 (bioluminescent S. aureus [12]) [µM] | other results |
| --- | --- | --- | --- | --- | --- | --- | --- | --- | --- |
| N=C(N)NCCC[C@H](NC(=O)CNC(=O)CNC(=O)CNC(=O)c1ccc2c3nc4nc(nc5[nH]c(nc6nc(nc([nH]3)c2c1)-c1ccccc1-6)c1ccccc51)-c1ccccc1-4)C(=O)N[C@@H](Cc1c[nH]c2ccccc12)C(=O)N[C@@H](CCCNC(=N)N)C(=O)N[C@@H](Cc1c[nH]c2ccccc12)C(=O)N[C@@H](CCCNC(=N)N)C(=O)N[C@@H](Cc1c[nH]c2ccccc12)C(=O)O [Compound 3, PcG3(RW)3] (X1-GGGRWRWRW-OH) | 48.0 (≈ 84.3 µg/mL) | 24.0 (≈ 42.2 µg/mL) | 12.0 (≈ 21.1 µg/mL) |  |  |  |  |  |  |
| N=C(N)NCCC[C@H](NC(=O)[C@H](Cc1c[nH]c2ccccc12)NC(=O)[C@H](CCCNC(=N)N)NC(=O)[C@H](Cc1c[nH]c2ccccc12)NC(=O)[C@H](CCCNC(=N)N)NC(=O)[C@H](CCCCN)NC(=O)[C@H](CCCCN)NC(=O)[C@H](CCCCN)NC(=O)[C@H](CCCCN)NC(=O)[C@H](CCCCN)NC(=O)CNC(=O)CNC(=O)CNC(=O)c1ccc2c3nc4nc(nc5[nH]c(nc6nc(nc([nH]3)c2c1)-c1ccccc1-6)c1ccccc51)-c1ccccc1-4)C(=O)N[C@@H](Cc1c[nH]c2ccccc12)C(=O)O [Compound 4, PcG3K5(RW)3] (X1-GGGKKKKKRWRWRW-OH) | 16.1 (≈ 38.6 µg/mL) | 16.1 (≈ 38.6 µg/mL) | 8.0 (≈ 19.2 µg/mL) | 2–4 times |  |  |  |  | bacterial proliferation of S. aureus at MIC (S. aureus [4]): completely stopped; elimination of S. aureus at low dose of light (S. aureus (ATCC 6538) [5]; [15]): ~95%; reduction of S. aureus (S. aureus (ATCC 6538) [5]; [16]): ≤ 99.999%; log reduction of S. aureus (S. aureus (ATCC 6538) [5]; [17]): up to 5 log; elimination of E. coli at low dose of light (E. coli (ATCC 8739) [6]; [15]): about 80%; reduction of E. coli (E. coli (ATCC 8739) [6]; [16]): 99.9%; log reduction of E. coli (E. coli (ATCC 8739) [6]; [17]): 3 log; time to be cleared out of organs [7]: ≤ 72 h; increase of inhibitory efficacy upon illumination (bioluminescent S. aureus [8]; red light / LED illumination vs no light, S. aureus and E. coli): ~ 140 fold; bacterial proliferation of E. coli at MIC (E. coli): completely stopped; plasma half-life (t1/2) [9]: 11.09 h; log reduction of MRSA (MRSA (ATCC 33591) [10]): up to 5 log; viability at 24 h (in vitro): > 90%; wound recovery with one-time illumination (S. aureus [11]; 20 μM local, one-time 680-nm illumination 12.0 J/cm^2, 33.33 mW/cm^2, vs without illumination): better wound recovery than the ones without illumination at the first 3 days after surgery; wound healing of S. aureus infected excisional wounds (S. aureus [11]; 50 μl of 20 μM local administration, without light, n = 6 per group): promoted wound healing and prevented or alleviated the infection |
| N=C(N)NCCC[C@H](NC(=O)CNC(=O)CNC(=O)CNC(=O)c1ccc2c3nc4nc(nc5[nH]c(nc6nc(nc([nH]3)c2c1)-c1ccccc1-6)c1ccccc51)-c1ccccc1-4)C(=O)N[C@@H](Cc1c[nH]c2ccccc12)C(=O)N[C@@H](CCCNC(=N)N)C(=O)N[C@@H](Cc1c[nH]c2ccccc12)C(=O)N[C@@H](CCCNC(=N)N)C(=O)N[C@@H](Cc1c[nH]c2ccccc12)C(=O)N[C@@H](CCCCN)C(=O)N[C@@H](CCCCN)C(=O)N[C@@H](CCCCN)C(=O)N[C@@H](CCCCN)C(=O)N[C@@H](CCCCN)C(=O)O [Compound 5, PcG3(RW)3K5] (X1-GGGRWRWRWKKKKK-OH) | 16.1 (≈ 38.6 µg/mL) | 16.1 (≈ 38.6 µg/mL) | 16.1 (≈ 38.6 µg/mL) | 2–4 times |  |  |  |  |  |
| H-GGGKKKKKRWRWRW-OH [Compound 1, G3K5(RW)3] | >215.6 | 107.8 | 107.8 |  | 61.8 ± 4.3 | 44.6 ± 4.72 | 59.2 ± 1.97 | 45.6 ± 2.9 |  |
| H-GGGRWRWRWKKKKK-OH [Compound 2, G3(RW)3K5] | >215.6 | 107.8 | 107.8 |  | 135 ± 25.3 | 71.6 ± 2.82 | 129 ± 30.3 | 68 ± 3.2 |  |
